Our source for the AC50 values is patent US20250346600A1, “TRICYCLIC DERIVATIVES AND RELATED USES” (MOMA Therapeutics, Inc., priority 2023, published 2025).

Broadly, the AC50 is the concentration giving half of the maximal activity seen.

Where two headings read alike, the source gives them in different places.

For test [1], the target named is T1, Full length WRN protein (aa 2-1432) (Homo sapiens (Human), UniProt Q14191). In words: WRN ATPase ADP-Glo biochemical assay, Assay Format B (100 μM ATP). The note with it: 0.25 nM WRN, 100 nM C6.18 ssDNA, 60 min preincubation, read-out: ATPase ADPGlo AC50 (uM)- Assay Format B.
Test [2] concerns HCT116 cells. As to the kind of experiment: HCT116 (MSI) 7 day viability, CellTiter Glo. The note with it: 7 days, read-out: HCT116 (MSI) Viability 7 Day Abs AC50. The class given is cell-based. In short, it runs like this: (§1)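 For each line, compound dilution series (3-fold, 10 points) met a defined seeding density—HCT116 50, HT29 500 cells/well—followed by 7 days at 37 °C. Luminescent ATP signal, background-corrected with no-cell wells, gave four-parameter logistic IC50s.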

Test [3] has as its target T1, Full length WRN protein (aa 2-1432). As to the kind of experiment: WRN ATPase ADP-Glo biochemical assay, Assay Format A (10 μM ATP). Particulars: 0.25 nM WRN, 100 nM C6.18 ssDNA, 30 min preincubation, read-out: ATPase ADPGlo AC50 (uM)- Assay Format A. In short, it runs like this:
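ADP-Glo luminescence measured hydrolysis of ATP by purified, baculovirus-expressed N-terminally tagged full-length WRN. Enzyme (0.5 nM) was preincubated 30 min with compound, then 200 nM ssDNA C6.18 plus 20 μM ATP were added (pre-mix levels) for 30 min at RT. IC50s come from four-parameter fits, geometric mean of at least two trials.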

Test [4] relates to HT29 cells. As to the kind of experiment: HT29 (MSS) 7 day viability, CellTiter Glo. Type of test: cell-based. The note with it: 7 days, read-out: HT29 (MSS) Viability 7 Day CTGAbs AC50. In short, it runs like this:
as §1

T1 sequence (Q14191 2-1432): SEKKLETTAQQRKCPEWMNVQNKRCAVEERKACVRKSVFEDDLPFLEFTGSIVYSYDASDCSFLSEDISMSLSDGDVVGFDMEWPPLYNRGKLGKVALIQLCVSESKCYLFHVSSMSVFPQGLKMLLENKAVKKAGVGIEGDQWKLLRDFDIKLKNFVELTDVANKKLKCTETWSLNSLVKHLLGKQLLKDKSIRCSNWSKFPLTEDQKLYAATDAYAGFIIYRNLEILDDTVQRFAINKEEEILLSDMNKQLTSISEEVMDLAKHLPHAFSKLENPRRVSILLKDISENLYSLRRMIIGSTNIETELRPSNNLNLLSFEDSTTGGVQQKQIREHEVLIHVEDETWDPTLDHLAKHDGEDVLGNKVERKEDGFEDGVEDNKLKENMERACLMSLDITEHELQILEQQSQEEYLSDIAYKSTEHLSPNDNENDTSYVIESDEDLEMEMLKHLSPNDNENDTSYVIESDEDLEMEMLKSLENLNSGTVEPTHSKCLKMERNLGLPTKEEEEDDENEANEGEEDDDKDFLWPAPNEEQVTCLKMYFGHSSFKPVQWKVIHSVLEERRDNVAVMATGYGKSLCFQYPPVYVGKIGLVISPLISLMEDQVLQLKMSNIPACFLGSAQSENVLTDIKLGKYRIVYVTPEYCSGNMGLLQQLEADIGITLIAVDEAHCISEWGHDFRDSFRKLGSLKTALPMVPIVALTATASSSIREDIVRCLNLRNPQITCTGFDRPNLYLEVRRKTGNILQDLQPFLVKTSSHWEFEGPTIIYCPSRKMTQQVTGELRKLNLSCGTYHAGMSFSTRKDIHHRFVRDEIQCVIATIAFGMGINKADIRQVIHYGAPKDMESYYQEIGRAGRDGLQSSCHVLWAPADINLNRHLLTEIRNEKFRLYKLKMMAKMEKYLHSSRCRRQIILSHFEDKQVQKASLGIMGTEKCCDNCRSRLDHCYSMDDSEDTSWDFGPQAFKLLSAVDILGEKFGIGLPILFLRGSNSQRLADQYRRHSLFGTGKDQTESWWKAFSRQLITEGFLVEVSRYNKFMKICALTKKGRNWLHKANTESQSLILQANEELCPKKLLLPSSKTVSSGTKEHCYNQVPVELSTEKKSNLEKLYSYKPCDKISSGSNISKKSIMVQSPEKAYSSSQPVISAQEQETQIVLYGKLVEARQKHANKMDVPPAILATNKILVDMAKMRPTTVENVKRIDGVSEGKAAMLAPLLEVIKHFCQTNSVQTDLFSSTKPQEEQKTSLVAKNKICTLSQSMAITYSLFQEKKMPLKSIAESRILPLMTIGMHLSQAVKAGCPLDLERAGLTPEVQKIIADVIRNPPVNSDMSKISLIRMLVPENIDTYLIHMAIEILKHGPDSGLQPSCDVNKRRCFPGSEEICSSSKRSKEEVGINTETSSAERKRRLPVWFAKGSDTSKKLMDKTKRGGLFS

`C=CC(=O)N1CCc2nn(-c3ccc(C4CC4)cc3)c3c2C(C1)N(C(=O)c1cnc(C(C)(F)F)cc1N)CC3` (centres unmarked) [Compound 183, 1-(5-(4-amino-6-(1,1-difluoroethyl)nicotinoyl)-2-(4-cyclopropylphenyl)-2,3,4,5,5a,6,8,9-octahydro-7H-1,2,5,7-tetraazabenzo[cd]azulen-7-yl)prop-2-en-1-one]: the half-maximal activity concentration (AC50) in test [1] was 0.0015 to 0.005 µM; in test [2] (Homo sapiens, HCT-116, 168 h), 1 to 100 nM; in test [3], under 0.0015 µM; in test [4] (Homo sapiens, HT-29, 168 h), over 3000 nM.

On to `C=CC(=O)N1CCc2nn(-c3ccc(C(C)C)cc3)c3c2C(C1)N(C(=O)c1cnc(C(F)(F)F)c(OC2CNC2)c1)CC3` (centres unmarked) [Compound 60, 1-(5-(5-(azetidin-3-yloxy)-6-(trifluoromethyl)nicotinoyl)-2-(4-isopropylphenyl)-2,3,4,5,5a,6,8,9-octahydro-7H-1,2,5,7-tetraazabenzo[cd]azulen-7-yl)prop-2-en-1-one], for which the AC50 is over 0.055 µM in test [1]; over 1000 nM in test [2] (Homo sapiens, HCT-116, 168 h); 0.005 to 0.015 µM in test [3]; over 3000 nM in test [4] (Homo sapiens, HT-29, 168 h).

Consider `C=CC(=O)N1CCc2nn(-c3ccc(C4CC4)cc3)c3c2C(C1)N(C(=O)c1ccc(C(F)(F)F)nc1O)CC3` (centres unmarked) [Compound 109, 1-(2-(4-cyclopropylphenyl)-5-(2-hydroxy-6-(trifluoromethyl)nicotinoyl)-2,3,4,5,5a,6,8,9-octahydro-7H-1,2,5,7-tetraazabenzo[cd]azulen-7-yl)prop-2-en-1-one], for which the AC50 in test [1] is 0.015 to 0.055 µM; in test [2] (Homo sapiens, HCT-116, 168 h), 250 to 500 nM; in test [3], 0.005 to 0.015 µM; in test [4] (Homo sapiens, HT-29, 168 h), over 3000 nM.

Turning to `C=CC(=O)N1CCc2nn(-c3ccc(C(C)C)cc3)c3c2C(C1)N(C(=O)c1cnc(C(F)(F)F)c(O)c1)CC3` (centres unmarked) [Compound 14, 1-(5-(5-hydroxy-6-(trifluoromethyl)nicotinoyl)-2-(4-isopropylphenyl)-2,3,4,5,5a,6,8,9-octahydro-7H-1,2,5,7-tetraazabenzo[cd]azulen-7-yl)prop-2-en-1-one], the AC50 in test [1] was 0.015 to 0.055 µM; in test [2] (Homo sapiens, HCT-116, 168 h), 1 to 100 nM; in test [3], 0.0015 to 0.005 µM; in test [4] (Homo sapiens, HT-29, 168 h), over 3000 nM.

As for `C=CC(=O)N1CCc2nn(-c3ccc(C(C)C)cc3)c3c2C(C1)N(C(=O)c1ccc(Br)c(NCC(F)(F)F)c1)CC3` (centres unmarked) [Compound 104, 1-(5-(4-bromo-3-((2,2,2-trifluoroethyl)amino)benzoyl)-2-(4-isopropylphenyl)-2,3,4,5,5a,6,8,9-octahydro-7H-1,2,5,7-tetraazabenzo[cd]azulen-7-yl)prop-2-en-1-one], the AC50 is over 0.055 µM in test [1]; 1 to 100 nM in test [2] (Homo sapiens, HCT-116, 168 h); 0.005 to 0.015 µM in test [3]; over 3000 nM in test [4] (Homo sapiens, HT-29, 168 h).

As to `C=CC(=O)N1CCc2nn(-c3ccc(C4CCC4)c(F)c3O)c3c2C(C1)N(C(=O)c1cnc(C(F)(F)F)cc1N)CC3` (centres unmarked) [Compound 139, 1-(5-(4-amino-6-(trifluoromethyl)nicotinoyl)-2-(4-cyclobutyl-3-fluoro-2-hydroxyphenyl)-2,3,4,5,5a,6,8,9-octahydro-7H-1,2,5,7-tetraazabenzo[cd]azulen-7-yl)prop-2-en-1-one], the AC50 in test [1] is 0.005 to 0.015 µM; in test [2] (Homo sapiens, HCT-116, 168 h), 1 to 100 nM; in test [3], under 0.0015 µM; in test [4] (Homo sapiens, HT-29, 168 h), over 3000 nM.

Regarding `C=CC(=O)N1CCc2nn(-c3ccc(C4CCC4)cc3O)c3c2C(C1)N(C(=O)c1ccc(C(C)(F)F)nc1N)CC3` (centres unmarked) [Compound 155, 1-(5-(2-amino-6-(1,1-difluoroethyl)nicotinoyl)-2-(4-cyclobutyl-2-hydroxyphenyl)-2,3,4,5,5a,6,8,9-octahydro-7H-1,2,5,7-tetraazabenzo[cd]azulen-7-yl)prop-2-en-1-one], the AC50 in test [1] was 0.005 to 0.015 µM; in test [2] (Homo sapiens, HCT-116, 168 h), 1 to 100 nM; in test [3], under 0.0015 µM; in test [4] (Homo sapiens, HT-29, 168 h), over 3000 nM.

As to `C=CC(=O)N1CCc2nn(-c3ccc(C4CCC4)cc3O)c3c2C(C1)N(C(=O)c1cnc(Br)c(OC(F)(F)F)c1)CC3` (centres unmarked) [Compound 62, 1-(5-(6-bromo-5-(trifluoromethoxy)nicotinoyl)-2-(4-cyclobutyl-2-hydroxyphenyl)-2,3,4,5,5a,6,8,9-octahydro-7H-1,2,5,7-tetraazabenzo[cd]azulen-7-yl)prop-2-en-1-one], the AC50 in test [1] is over 0.055 µM; in test [2] (Homo sapiens, HCT-116, 168 h), 100 to 250 nM; in test [3] it was 0.0015 to 0.005 µM; in test [4] (Homo sapiens, HT-29, 168 h), over 3000 nM.

For `C=C(F)C(=O)N1CCc2nn(-c3ccc(C(C)C)cc3)c3c2C(C1)N(C(=O)c1ccc(Br)c2[nH]cnc12)CC3` (centres unmarked) [Compound 17, 1-(5-(7-bromo-1H-benzo[d]imidazole-4-carbonyl)-2-(4-isopropylphenyl)-2,3,4,5,5a,6,8,9-octahydro-7H-1,2,5,7-tetraazabenzo[cd]azulen-7-yl)-2-fluoroprop-2-en-1-one], the AC50 in test [1] was over 0.055 µM; in test [2] (Homo sapiens, HCT-116, 168 h) it was over 1000 nM; in test [3], 0.015 to 0.055 µM; in test [4] (Homo sapiens, HT-29, 168 h) it was over 3000 nM.

On to `C=CC(=O)N1CC(C)c2nn(-c3ccc(C4CC4)cc3O)c3c2C(C1)N(C(=O)c1cnc(C(F)(F)F)cc1N)CC3` (centres unmarked) [Compound 195, 1-(5-(4-amino-6-(trifluoromethyl)nicotinoyl)-2-(4-cyclopropyl-2-hydroxyphenyl)-9-methyl-2,3,4,5,5a,6,8,9-octahydro-7H-1,2,5,7-tetraazabenzo[cd]azulen-7-yl)prop-2-en-1-one], for which the concentration at half-maximal activity (AC50) in test [1] was 0.005 to 0.015 µM; in test [2], 1 to 100 nM; in test [3], under 0.0015 µM; in test [4], over 3000 nM.

Take `C=CC(=O)N1CC(OCc2nnc(C)s2)c2nn(-c3ccc(C4CC4)cc3)c3c2C(C1)N(C(=O)c1cnc(C(F)(F)F)cc1N)CC3` (centres unmarked) [Compound 249, 1-(5-(4-amino-6-(trifluoromethyl)nicotinoyl)-2-(4-cyclopropylphenyl)-9-((5-methyl-1,3,4-thiadiazol-2-yl)methoxy)-2,3,4,5,5a,6,8,9-octahydro-7H-1,2,5,7-tetraazabenzo[cd]azulen-7-yl)prop-2-en-1-one]: the AC50 in test [1] was 0.0015 to 0.005 µM; in test [2] (Homo sapiens, HCT-116, 168 h) it was 1 to 100 nM; in test [3], under 0.0015 µM; in test [4] (Homo sapiens, HT-29, 168 h), over 3000 nM.
